This passage reports IC50 results from BindingDB's records for doi:10.1021/jm00114a027 (Research Biochemicals, 1991).

This assay can be described thus: Compound was tested for binding affinity to dopamine reuptake sites in the tissue homogenates prepared from […] striatum using [3H]CFT as radioligand.

The structures appear in SMILES notation. pIC50: −log10 of the molar value.

For orientation: pIC50 means the negative decadic logarithm of the IC50, by convention in mol/L. Low readings indicate a large IC50, high ones a small IC50.

For the molecule `COC(=O)[C@@H]1C2CC[C@H](C[C@@H]1c1ccc(I)cc1)N2C`, the pIC50 was 8.80.
The molecule `COC(=O)C1C(c2ccc(I)cc2)CC2CCC1N2C` [(3S,5R)-methyl 3-(4-iodophenyl)-8-methyl-8-aza-bicyclo[3.2.1]octane-2-carboxylate] showed a pIC50 of 7.06.
